Experiments:
Type in all cases: in vivo
[1] = test system: leukocyte cell (CD45^+ cells); assay: Mouse air pouch model (MSU crystal-induced acute gouty arthritis): leukocyte cell density in exudate by flow cytometry; settings: for AVERAGE VALUES (normalized leukocyte cell density): Example 4, Table 2, topical 100 mg paste/mouse (5 mg total active) 15 hours prior to MSU, exudate 5 hours after MSU, blank control 803; for INHIBITION RATE (leukocyte cell density): Example 4, Table 2, vs blank control, topical 100 mg paste/mouse (5 mg total active) 15 hours prior to MSU, 5 hours after MSU
Experimental: (§1) Mouse Air pouch model: this mouse model may be referenced to the methods and the experimental details as in the published article "Role of S100A8 and S100A9 in neutrophil recruitment in response to monosodium urate monohydrate crystals in the air-pouch model of acute gouty arthritis", Arthritis Rheum 2003 Aug, 48(8):2310-20.
(§2) Before the experiment, the mice are shaved to remove back hair. At day 0 sterile filtered air (2 ml/per mouse) is injected through 0.22 µm microfilter to the back of each mouse subcutaneously, so that a pseudosynovial cavity is formed in each mouse. At day 3, an air booster (3 ml/mouse) is again given to each mouse, so that the air pouch is maintained round. Later, the mice are weighed and grouped so that the average weight of the mice in each group is about the same. At day 6 monosodium urate (MSU) crystal suspension (5 mg in 2 ml/per mouse) is injected into the air pouch. Topical application of the paste (100 mg paste/per mouse) is administrated 15 hours prior to MSU stimulation. At a specific time (5 hours) after the injection of MSU, the mice were euthanized with an excess of carbon dioxide, 2 ml PBS per mouse is injected into the air pouch, and the air pouch is carefully cut to collect the exudate. The collected exudate is subjected to the centrifugation at 1,000 rpm, 4°C for 5 minutes, and the supernatant is then placed in a 96-well plate and stored at -20°C. An ELISA kit (purchased from R&D Systems) is used to analyze the contents of IL-1β and IL-6 in the exudate. The precipitate is resuspended and reacted with 1 ml red blood cell lysis buffer (RBC lysis buffer) for one minute to remove the red blood cells, followed by adding 1 ml PBS to terminate the reaction, centrifuged at 1,000 rpm, 25°C for 5 minutes, and the supernatant is discarded. The precipitate is then resuspended in 1 ml PBS as the cell suspension and the cell suspension is filtered by filter membrane (BD Falcon 100 µm Nylon filter strainer) and the filtered cell suspension is dispensed into several tubes (0.25 ml/tube) for subsequent cell counting or for labelling with various differentiation antigen markers (such as cluster of differentiation (CD) markers). The flow cytometry is used for cell counting of the various cells.
(§3) In order to investigate the anti-gout efficacy of AG02-RA1 and AG04-RA1, either used alone or in combination, the experiments are performed to test AG02-RA1 alone, AG04-RA1 alone and the combination(s) of AG02-RA1 :AG04-RA1 in the ratio of 50:50 (Composition Nos. 1, 2 and 3 as shown in Table 1). The total weight of the content of AG02-RA1 and/or AG04-RA1 is 5 mg, accounting for 5 % of the total weight of the test sample paste composition. […]

[2] = test system: neutrophil cell (CD45^+/Ly6G^+ cells); assay: Mouse air pouch model (MSU crystal-induced acute gouty arthritis): neutrophil cell density in exudate by flow cytometry; settings: Example 4, Table 3; for INHIBITION RATE (neutrophil cell density): CD45^+/Ly6G^+ cells, vs blank control, topical 100 mg paste/mouse (5 mg total active); for AVERAGE VALUES (normalized cell density, neutrophil CD45^+/Ly6G^+ cells): topical 100 mg paste/mouse (5 mg total active) 15 hours prior to MSU, exudate 5 hours after MSU, blank control 360
Experimental: as §1, §2, §3

interleukin-1β (mIL-1β) = assay: Mouse air pouch model (MSU crystal-induced): IL-1β content of exudate by ELISA; settings: Example 4, Figure 3; topical 100 mg paste/mouse (5 mg total active) 15 hours prior to MSU; exudate 5 hours after MSU
Experimental: as §1
(§4) Before the experiment, the mice are shaved to remove back hair. At day 0 sterile filtered air (2 ml/per mouse) is injected through 0.22 µm microfilter to the back of each mouse subcutaneously, so that a pseudosynovial cavity is formed in each mouse. At day 3, an air booster (3 ml/mouse) is again given to each mouse, so that the air pouch is maintained round. Later, the mice are weighed and grouped so that the average weight of the mice in each group is about the same. At day 6 monosodium urate (MSU) crystal suspension (5 mg in 2 ml/per mouse) is injected into the air pouch. Topical application of the paste (100 mg paste/per mouse) is administrated 15 hours prior to MSU stimulation. At a specific time (5 hours) after the injection of MSU, the mice were euthanized with an excess of carbon dioxide, 2 ml PBS per mouse is injected into the air pouch, and the air pouch is carefully cut to collect the exudate. The collected exudate is subjected to the centrifugation at 1,000 rpm, 4°C for 5 minutes, and the supernatant is then placed in a 96-well plate and stored at -20°C. […]

interleukin-6 (mIL-6) = assay: Mouse air pouch model (MSU crystal-induced): IL-6 content of exudate by ELISA; settings: Example 4, Figure 4; topical 100 mg paste/mouse (5 mg total active) 15 hours prior to MSU; exudate 5 hours after MSU
Experimental: as §1, §4

Compound | AVERAGE VALUES (normalized leukocyte cell density) [1] [cells* 10^3/ml] | INHIBITION RATE (leukocyte cell density) [1] [%] | INHIBITION RATE (neutrophil cell density) [2] [%] | AVERAGE VALUES (normalized cell density, neutrophil CD45^+/Ly6G^+ cells) [2] [cells*10^3/ml] | inhibition rate of interleukin-1β secretion (interleukin-1β (mIL-1β)) [%] | inhibition rate of interleukin-6 secretion (interleukin-6 (mIL-6)) [%]
3,7,11,15(17)-cembratetraene-16,2:19,6-diolide-3484-37-5(3E,12E)-3,12-dimethyl-8-methylene-6,18-dioxa-tricyclo[14.2.1.0.5,9]nonadeca-3,12,16(19)-triene-7,17-dione [AG02-RA1] | 1609 | -100 | 63 | 133 | – | –
CC(=O)OCC=Cc1ccc(OC(C)=O)cc1 [AG04-RA1, 4-(3-acetoxy-propenyl)-phenyl acetate] | 670 | 17 | 43 | 205 | > 50 | > 50
